Reference: patent publication US20020049223A1, “Quinoline and naphthyridine carboxylic acid antibacterials” (priority 1999, published 2002)

Tests used:
[1] = system: Enterococcus faecalis PIU 1967; assay: Assay A: in vitro antibacterial activity, agar dilution MIC; assay type: cell-based; settings: Table 1, Assay A, BHI agar, 35-37° C., about 20 to 24 hours; code B = Enterococcus faecalis PIU 1967; unit assumed
Method: (§1) Assay A. Determination of Biological Activity In Vitro Assay of Antibacterial Activity
(§2) Representative compounds of the invention were assayed in vitro for antibacterial activity. Twelve petri dishes containing successive aqueous dilutions of the test compound mixed with sterilized Brain Heart Infusion (BHI) agar (Difco 0418-01-5) (10 mL) were prepared. Each plate was inoculated with 1:100 (or 1:10 for slow-growing strains, such as Micrococcus and Streptococcus) dilutions of up to 32 different microorganisms using a Steers replicator block. The inoculated plates were incubated at 35-37° C. for about 20 to about 24 hours. In addition, a control plate with BHI agar and no test compound was prepared and incubated at the beginning and end of each test.
(§3) An additional plate containing a compound having known susceptibility patterns for the organisms being tested and belonging to the same antibiotic class as the test compound was also prepared and incubated as a further control and to provide test-to-test comparability. Ciprofloxacin was used for this purpose.
(§4) After incubation, each plate was visually inspected. The minimum inhibitory concentration (MIC) was defined as the lowest concentration of drug yielding no growth, a slight haze, or sparsely isolated colonies on the inoculum spot as compared to the growth control.

Escherichia coli JUHL [2] = assay: as above; assay type: cell-based; settings: Table 1, Assay A, BHI agar, 35-37° C., about 20 to 24 hours; code D = Escherichia coli JUHL; unit assumed
Method: as §1, §2, §3, §4

[3] = system: Haemophilus influenzae DILL AMP R; assay: as above; assay type: cell-based; settings: Table 1, Assay A, BHI agar, 35-37° C., about 20 to 24 hours; code E = Haemophilus influenzae DILL AMP R; unit assumed
Method: as §1, §2, §3, §4

[4] = system: Moraxella catarrahalis 2604; assay: as above; assay type: cell-based; settings: Table 1, Assay A, BHI agar, 35-37° C., about 20 to 24 hours; code C = Moraxella catarrahalis 2604; unit assumed
Method: as §1, §2, §3, §4

[5] = system: Staphylococcus aureus ATCC 6538P; assay: as above; assay type: cell-based; settings: Table 1, Assay A, BHI agar, 35-37° C., about 20 to 24 hours; code A = Staphylococcus aureus ATCC 6538P; unit assumed
Method: as §1, §2, §3, §4

[6] = system: Streptococcus pneumoniae ATCC 6303; assay: as above; assay type: cell-based; settings: Table 1, Assay A, BHI agar, 35-37° C., about 20 to 24 hours; code F = Streptococcus pneumoniae ATCC 6303; unit assumed
Method: as §1, §2, §3, §4

[7] = system: Enterococcus faecalis PIU 1967; assay: Assay B: in vitro antibacterial activity, broth microdilution MIC (NCCLS); assay type: cell-based; settings: Table 2, Assay B, cation-adjusted Mueller Hinton broth, 35° C., 16 to 20 hr; code B = Enterococcus faecalis PIU 1967; unit assumed
Summary of the method: (§5)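 NCCLS broth microdilution: cation-adjusted MH broth, ~5×10^5 CFU/mL, 35° C, 16–20 hr, visual endpoint of complete growth inhibition. Fastidious strains incubated 20–24 hr, S. pneumoniae with 3% lysed horse blood, H. influenzae with yeast extract, hematin and NAD.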

Escherichia coli JUHL [8] = assay: as above; assay type: cell-based; settings: Table 2, Assay B, cation-adjusted Mueller Hinton broth, 35° C., 16 to 20 hr; code D = Escherichia coli JUHL; unit assumed
Summary of the method: as §5

[9] = system: Haemophilus influenzae DILL AMP R; assay: as above; assay type: cell-based; settings: Table 2, Assay B, Mueller Hinton broth with yeast extract, hematin and NAD, 20 to 24 hr; code E = Haemophilus influenzae DILL AMP R; unit assumed
Summary of the method: as §5

[10] = system: Staphylococcus aureus ATCC 6538P; assay: as above; assay type: cell-based; settings: Table 2, Assay B, cation-adjusted Mueller Hinton broth, 35° C., 16 to 20 hr; code A = Staphylococcus aureus ATCC 6538P; unit assumed
Summary of the method: as §5

[11] = system: Streptococcus pneumoniae ATCC 6303; assay: as above; assay type: cell-based; settings: Table 2, Assay B, Mueller Hinton broth with 3% lysed horse blood, 20 to 24 hr; code F = Streptococcus pneumoniae ATCC 6303; unit assumed
Summary of the method: as §5

SMILES | Antibacterial Activity (MIC's), B [1] | Antibacterial Activity (MIC's), D (Escherichia coli JUHL [2]) | Antibacterial Activity (MIC's), E [3] | Antibacterial Activity (MIC's), C [4] | Antibacterial Activity (MIC's), A [5] | Antibacterial Activity (MIC's), F [6] | melting point | Antibacterial Activity (MIC's), B [7] | Antibacterial Activity (MIC's), D (Escherichia coli JUHL [8]) | Antibacterial Activity (MIC's), E [9] | Antibacterial Activity (MIC's), A [10] | Antibacterial Activity (MIC's), F [11]
O=C(O)c1cn(C2CC2)c2nc(-c3cc4c(s3)CCCC4O)c(F)cc2c1=O (centres unmarked) [Example 35, 1-cyclopropyl-6-fluoro-7-(4-hydroxy-4,5,6,7-tetrahydro-1-benzothien-2-yl)-4-oxo-1,4-dihydro[1,8]naphthyridine-3-carboxylic acid] | 0.78 µg/mL | 0.78 µg/mL | 0.06 µg/mL | 0.05 µg/mL | 0.05 µg/mL | 0.5 µg/mL | – | – | – | – | – | –
COc1c(-c2cc3c(s2)CCC(O)C3)ccc2c(=O)c(C(=O)O)cn(C3CC3)c12 (centres unmarked) [Example 42, 1-cyclopropyl-7-(5-hydroxy-4,5,6,7-tetrahydro-1-benzothien-2-yl)-8-methoxy-4-oxo-1,4-dihydro-3-quinolinecarboxylic acid] | 0.39 µg/mL | 0.78 µg/mL | 0.125 µg/mL | 0.02 µg/mL | 0.02 µg/mL | 0.25 µg/mL | 232 to 233 °C | – | – | – | – | –
Cl.O=C(O)c1cn(C2CC2)c2nc(-c3cc4c(s3)CNCC4)c(F)cc2c1=O [Example 9, 1-cyclopropyl-6-fluoro-4-oxo-7-(4,5,6,7-tetrahydrothieno(2,3-c)pyridin-2-yl)-1,4-dihydro[1,8]naphthyridine-3-carboxylic acid hydrochloride] | 0.2 µg/mL | 0.1 µg/mL | 0.06 µg/mL | 0.1 µg/mL | 0.1 µg/mL | 0.125 µg/mL | 290 to 291 °C | – | – | – | – | –
CC1CNCc2sc(-c3ccc4c(=O)c(C(=O)O)cn(C5CC5)c4n3)cc21.Cl (centres unmarked) [Example 32, 1-cyclopropyl-7-(4-methyl-4,5,6,7-tetrahydrothieno(2,3-c)pyrdin-2-yl)-4-oxo-1,4-dihydro[1,8]naphthyridine-3-carboxylic acid hydrochloride] | 0.39 µg/mL | 0.39 µg/mL | 0.25 µg/mL | 0.2 µg/mL | 0.2 µg/mL | 1 µg/mL | – | – | – | – | – | –
O=C(O)c1cn(C2CC2)c2nc(-c3cc4c(s3)CCC/C4=N\O)c(F)cc2c1=O [Example 49, 1-cyclopropyl-6-fluoro-7-((4E)-4-(hydroxyimino)-4,5,6,7-tetrahydro-1-benzothien-2-yl)-4-oxo-1,4-dihydro[1,8]naphthyridine-3-carboxylic acid] | 0.39 µg/mL | 0.78 µg/mL | 0.06 µg/mL | 0.05 µg/mL | 0.05 µg/mL | 0.25 µg/mL | – | – | – | – | – | –
COc1c(-c2cc3c(s2)CCC(C)(C)C3O)ccc2c(=O)c(C(=O)O)cn(C3CC3)c12 (centres unmarked) [Example 213, 1-cyclopropyl-7-(4-hydroxy-5,5-dimethyl-4,5,6,7-tetrahydro-1-benzothien-2-yl)-8-methoxy-4-oxo-1,4-dihydro-3-quinolinecarboxylic acid] | – | – | – | – | – | – | 93 to 94 °C | 0.5 µg/mL | 0.5 µg/mL | 0.25 µg/mL | 0.03 µg/mL | 0.5 µg/mL
Br.CC1Cc2sc(-c3ccc4c(=O)c(C(=O)O)cn(C5CC5)c4c3)cc2CN1 (centres unmarked) [Example 13, 1-cyclopropyl-7-(6-methyl-4,5,6,7-tetrahydrothieno[3,2-c]pyridin-2-yl)-4-oxo-1,4-dihydro-3-quinolinecarboxylic acid hydrobromide] | 0.2 µg/mL | 0.2 µg/mL | 0.25 µg/mL | 0.2 µg/mL | 0.1 µg/mL | 0.25 µg/mL | – | – | – | – | – | –
O=C1CCCc2sc(-c3nc4c(cc3F)c(=O)c(C(=O)O)cn4C3CC3)cc21 [Example 48, 1-cyclopropyl-6-fluoro-4-oxo-7-(4-oxo-4,5,6,7-tetrahydro-1-benzothien-2-yl)-1,4-dihydro[1,8]naphthyridine-3-carboxylic acid] | 0.2 µg/mL | 0.78 µg/mL | 0.06 µg/mL | 0.02 µg/mL | 0.02 µg/mL | 0.25 µg/mL | – | – | – | – | – | –
COc1c(-c2cc3c(s2)SCCC3N)ccc2c(=O)c(C(=O)O)cn(C3CC3)c12.Cl (centres unmarked) [Example 37, 7-(4-amino-5,6-dihydro-4H-thieno[2,3-b]thiopyran-2-yl)-1-cyclopropyl-8-methoxy-4-oxo-1,4-dihydro-3-quinolinecarboxylic acid hydrochloride] | 0.1 µg/mL | 0.2 µg/mL | 0.125 µg/mL | 0.1 µg/mL | 0.05 µg/mL | 0.25 µg/mL | – | – | – | – | – | –

Continued, values first:

Antibacterial Activity (MIC's), B [1] | Antibacterial Activity (MIC's), D (Escherichia coli JUHL [2]) | Antibacterial Activity (MIC's), E [3] | Antibacterial Activity (MIC's), C [4] | Antibacterial Activity (MIC's), A [5] | Antibacterial Activity (MIC's), F [6] | melting point | Antibacterial Activity (MIC's), B [7] | Antibacterial Activity (MIC's), D (Escherichia coli JUHL [8]) | Antibacterial Activity (MIC's), E [9] | Antibacterial Activity (MIC's), A [10] | Antibacterial Activity (MIC's), F [11] | SMILES
0.2 µg/mL | 0.39 µg/mL | 0.03 µg/mL | 0.1 µg/mL | 0.05 µg/mL | 0.25 µg/mL | – | – | – | – | – | – | COc1c(-c2cc3c(s2)CC(O)C3)ccc2c(=O)c(C(=O)O)cn(C3CC3)c12 (centres unmarked) [Example 45, 1-cyclopropyl-7-(5-hydroxy-5,6-dihydro-4H-cyclopentarblthien-2-yl)-8-methoxM-4-oxo-1,4-dihydro-3-quinolinecarboxylic acid]
0.2 µg/mL | 1.56 µg/mL | 0.5 µg/mL | 0.02 µg/mL | 0.01 µg/mL | 0.5 µg/mL | – | – | – | – | – | – | COc1c(-c2cc3c(s2)CC(O)CC3)ccc2c(=O)c(C(=O)O)cn(C3CC3)c12 (centres unmarked) [Example 47, 1-cyclopropyl-7-(6-hydroxy-4,5,6,7-tetrahydro-1-benzothien-2-yl)-8-methoxy-4-oxo-1,4-dihydro-3-quinolinecarboxylic acid]
0.78 µg/mL | 0.39 µg/mL | 0.25 µg/mL | 0.2 µg/mL | 0.2 µg/mL | 0.25 µg/mL | – | – | – | – | – | – | CC1NCCc2cc(-c3ccc4c(=O)c(C(=O)O)cn(C5CC5)c4c3OC(F)F)sc21.Cl (centres unmarked) [Example 52, 1-cyclopropyl-8-diflouromethoxy-7-(7-methyl-4,5,6,7-tetrahydrotheino(2,3-c)pyrindin-2-yl)-4-oxo-1,4-dihydro-3-quinolinecarboxylic acid hydrochloride]
0.78 µg/mL | 0.78 µg/mL | 0.25 µg/mL | 0.2 µg/mL | 0.2 µg/mL | 1 µg/mL | – | – | – | – | – | – | Br.CC1(C)CNCc2cc(-c3ccc4c(=O)c(C(=O)O)cn(C5CC5)c4c3OC(F)F)sc21 [Example 28]
– | – | – | – | – | – | 174 to 178 °C | 0.06 µg/mL | 0.125 µg/mL | 0.03 µg/mL | 0.015 µg/mL | 0.03 µg/mL | COc1c(-c2cc3c(s2)C(N)CCC3)ccc2c(=O)c(C(=O)O)cn(C3CC3)c12.Cl (centres unmarked) [Example 201, 7-(7-amino-4,5,6,7-tetrahydro-1-benzothien-2-yl)-1-cyclopropyl-8-methoxy-4-oxo-1,4-dihydro-3-quinolinecarboxylic acid hydrochloride]
